Measured values reported in ChEMBL document CHEMBL1201862, “PubChem BioAssay data set” (2004).
Calls of active or inactive are those of the source. Rule as the data show it, for most assays here: actives have a measured EC50 and inactives only a lower limit.

Legend:
H9c2 = assay: cells; format: functional, cell-based; conditions: Rattus norvegicus, H9c2, Myocardium;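 also: confirmatory concentration-response retest of ultra-high-throughput screening hits for modulation of myocardial damage; cell death induced by hydrogen peroxide oxidative stress; compound pretreatment for 60 min then peroxide exposure for 2 h; potency is for protecting the cells against peroxide damage rather than for killing them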
[1] = THP-1 cell cytotoxicity, cytotoxicity control, set 4 (AID 504911); format: functional; conditions: Mycobacterium tuberculosis
[2] = blockers of CRF-binding protein–CRF-R2 complex – cell-based, uHTS hits, 384-well, dose response (AID 651639); format: functional, Homo sapiens; conditions: read-out: IC50_Mean
Streptococcus = assay: GAS UMAA2166 growth inhibition – luminescence, BacTiterGlo, counter-screen for streptokinase expression inhibitor project, dose response (AID 1915); format: functional, organism-based;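 also: potency for reduction of bacterial viability or growth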
[3] = biological target: Photoreceptor-specific nuclear receptor (Homo sapiens, UniProt Q9Y5X4); format: functional, cell-based;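 also: CHO-S cells with Gal4-NCOR and VP16-NR2E3 two-hybrid luciferase reporter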
[4] = NIH-3T3 fibroblast cytotoxicity, dose response, cytotoxicity control, cell-based, fluorescence, Alamar Blue, secondary assay (AID 2327); format: functional;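 also: NIH-3T3 mouse fibroblasts cultured with fluconazole at 8 µg/mL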
Streptokinase A = biological target: T1, Streptokinase A (Streptococcus pyogenes serotype M1, UniProt P10520); assay: viability-normalized secreted streptokinase activity reduction – plasminogen activation absorbance, OD405, dose response (AID 1914); format: functional, Streptococcus pyogenes M1 GAS;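 also: secreted streptokinase activity via plasminogen activation per viability signal from cell pellet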
T1 sequence (P10520 whole entry): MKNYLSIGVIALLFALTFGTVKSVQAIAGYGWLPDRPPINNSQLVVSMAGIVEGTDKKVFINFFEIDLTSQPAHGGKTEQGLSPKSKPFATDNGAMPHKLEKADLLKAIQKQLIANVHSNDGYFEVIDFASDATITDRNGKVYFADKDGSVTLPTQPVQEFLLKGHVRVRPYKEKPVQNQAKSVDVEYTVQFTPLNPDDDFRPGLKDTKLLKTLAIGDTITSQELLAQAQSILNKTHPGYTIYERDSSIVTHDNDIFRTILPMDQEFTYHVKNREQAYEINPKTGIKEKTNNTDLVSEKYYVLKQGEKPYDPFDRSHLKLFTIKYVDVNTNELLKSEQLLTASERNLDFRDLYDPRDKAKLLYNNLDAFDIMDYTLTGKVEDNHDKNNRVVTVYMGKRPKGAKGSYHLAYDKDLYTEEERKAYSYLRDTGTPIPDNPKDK

BJ [5] = assay: cells; format: functional, cell-based; conditions: Homo sapiens
[6] = tested on: Streptococcus sp. 'group A'; assay: Streptococcus pyogenes SK(-)GAS viability under kanamycin – luminescence, BacTiterGlo, confirmation, counter-screen for streptokinase expression inhibitor project, dose response (AID 1900); format: functional, organism-based
BJ [7] = assay: BJ-TERT-LT-ST fibroblast viability loss – cell-based, RAS-independent, luminescence, dose response (AID 1935); format: functional; conditions: Homo sapiens;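 also: BJ fibroblasts immortalized with TERT plus LT and ST oncogenes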
Vero = assay: cells; format: functional; conditions: Chlorocebus sabaeus
BJ [8] = assay: growth inhibition of engineered Ras-driven BJ cells – cell-based, alamar blue fluorescence, cherrypicked samples, dose response (AID 2631); format: functional; conditions: Homo sapiens;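 also: confirmatory dose-response assay in RAS-dependent BJ fibroblasts engineered with TERT, LT and ST, with cytotoxicity read by fluorescence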
[9] = DRD fibroblast viability loss – cell-based, non-viral oncogenic, luminescence, dose response (AID 1934); format: functional; conditions: Homo sapiens
BJ [10] = assay: BJ-TERT fibroblast viability loss – cell-based, RAS-independent, luminescence, dose response (AID 1933); format: functional; conditions: Homo sapiens
[11] = fluconazole-exposed Candida albicans growth modulators – fluorescence, retest, confirmation (AID 2467); format: functional, cell-based
[12] = biological target: T2, RNA-binding protein pos-1 (Caenorhabditis elegans, UniProt G5EF15); assay: disruptors of C. elegans POS-1 RNA interaction – biochemical, fluorescence polarization, dose response (AID 1964);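 also: purified POS-1 fused to maltose binding protein made in E. coli; potency of compounds blocking POS-1 binding to fluorescent RNA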
T2 sequence (G5EF15 whole entry): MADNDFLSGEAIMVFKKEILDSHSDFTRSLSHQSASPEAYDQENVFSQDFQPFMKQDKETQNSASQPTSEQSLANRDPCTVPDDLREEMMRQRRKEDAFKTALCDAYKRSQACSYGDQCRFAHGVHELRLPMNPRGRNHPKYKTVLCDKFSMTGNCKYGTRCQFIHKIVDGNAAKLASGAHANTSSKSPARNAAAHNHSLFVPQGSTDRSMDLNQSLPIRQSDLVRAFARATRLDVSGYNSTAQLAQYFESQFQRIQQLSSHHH

[13] = biological target: T3, Zinc finger protein mex-5 (Caenorhabditis elegans, UniProt Q9XUB2); assay: potency of MEX-5 RNA-binding blockers – biochemical, C. elegans, fluorescence polarization, dose response (AID 1960)
T3 sequence (Q9XUB2 whole entry): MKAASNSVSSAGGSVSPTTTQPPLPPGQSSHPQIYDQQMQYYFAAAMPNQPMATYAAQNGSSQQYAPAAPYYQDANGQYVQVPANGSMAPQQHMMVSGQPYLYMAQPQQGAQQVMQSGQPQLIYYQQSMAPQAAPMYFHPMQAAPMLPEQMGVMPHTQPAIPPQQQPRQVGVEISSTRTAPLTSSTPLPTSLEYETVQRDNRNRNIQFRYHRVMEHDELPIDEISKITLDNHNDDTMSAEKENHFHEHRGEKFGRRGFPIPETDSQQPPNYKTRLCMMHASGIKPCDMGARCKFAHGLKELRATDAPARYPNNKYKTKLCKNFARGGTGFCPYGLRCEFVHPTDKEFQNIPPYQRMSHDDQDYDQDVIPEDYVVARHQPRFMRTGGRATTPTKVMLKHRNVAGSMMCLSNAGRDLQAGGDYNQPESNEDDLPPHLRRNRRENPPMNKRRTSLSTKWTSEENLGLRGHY

Sequence of Photoreceptor-specific nuclear receptor (Q9Y5X4 whole entry, the tested form may be a part): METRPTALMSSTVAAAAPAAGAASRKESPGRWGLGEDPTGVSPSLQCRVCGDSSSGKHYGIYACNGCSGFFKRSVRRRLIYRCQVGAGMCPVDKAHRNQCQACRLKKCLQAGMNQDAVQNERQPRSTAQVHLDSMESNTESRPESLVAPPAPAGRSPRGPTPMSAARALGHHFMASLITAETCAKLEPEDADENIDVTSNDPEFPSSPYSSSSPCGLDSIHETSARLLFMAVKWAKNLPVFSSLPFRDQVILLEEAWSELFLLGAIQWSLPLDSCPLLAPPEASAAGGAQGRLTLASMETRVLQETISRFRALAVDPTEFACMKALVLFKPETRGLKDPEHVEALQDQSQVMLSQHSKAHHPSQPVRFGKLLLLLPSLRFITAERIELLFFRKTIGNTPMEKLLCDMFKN

O=C(CSc1nc(O)c2ccccc2n1)N1CCOCC1
active: IC50 (H9c2) 25.9 µM | CC50 [1] > 100 µM

CN(C(=O)COC(=O)CCc1nc(O)c2ccccc2n1)C1CCS(=O)(=O)C1 (configuration not stated)
inactive: IC50 [2] > 20 µM

O=C(/C=C/c1ccc([N+](=O)[O-])o1)NNC(=O)c1ccc(F)cc1
active: EC50 (Streptococcus) 10.3 µM | IC50 [3] 1.8 µM | EC50 (Streptokinase A) 13.9 µM | EC50 [6] 2.58 µM | CC50 (Vero) 14.5 µM | EC50 (BJ [8]) 2.93 µM | EC50 [9] 7.26 µM | EC50 [11] 1.24 µM | EC50 [13] 24.8 µM
> 300 µM (not active): EC50 [12]
inconclusive: EC50 [4] 4.1 µM | EC50 (BJ [5]) 4.1 µM | EC50 (BJ [7]) > 150 µM | EC50 (BJ [10]) 7.04 µM
